Data as given in paper PMC4081582, “Enhancing Effect of Borneol and Muscone on Geniposide Transport across the Human Nasal Epithelial Cell Monolayer” (PLoS ONE, 2014).

Experiments:
HNEC monolayer = assay: Transport of geniposide across the HNEC monolayer; format: in vitro ADME, human; conditions: for B→A fluxes of geniposide / A→B fluxes of geniposide: P<0.05 vs control
Method: When HNECs reached approximately 80–90% confluence, the cells were detached with trypsin and were seeded at a density of 2×10^5 cells·cm^−2 on PET inserts. The culture medium was BEGM:DMEM/F12 (1∶1) in both sides at 37 °C in an atmosphere of 5% CO2 and 95% relative humidity, which was first changed after 24 h of seeding and then every 2 days.
The transport experiments were carried out when transepithelial electrical resistance (TEER) value was higher than 500 Ω·cm^2. The transport studies were performed by initially incubating the monolayers in Hanks balanced salt solution (HBSS) for 30 min at 37 °C. To measure apical (A) → basolateral (B) transport, 0.5 mL of drug solution and 1.5 mL of HBSS were added in the A and B sides, respectively. Basolateral (B) → apical (A) transport was evaluated by adding 1.5 mL of drug solution in B side and 0.5 mL of HBSS in A side.
Geniposide transport was studied at three concentrations: 25, 50 and 100 µg·mL^−1. The effect of borneol was studied at 27.8, 55.6 and 111.2 µg·mL^−1 concentrations in the presence of 50 µg·mL^−1 geniposide. The effect of muscone was studied at 4.17, 8.34 and 16.68 µg·mL^−1 concentrations in the presence of 50 µg·mL^−1 geniposide. Finally, the effects of both borneol and muscone were studied at the concentrations mentioned above in the presence of 50 µg·mL^−1 geniposide.
Each measurement was evaluated in triplicate. Cells were incubated in a 37 °C shaking incubator. Samples of 200 µL were taken from the apical side (to study B → A transport) and samples of 600 µL were taken from the basal side (to study A → B transport) at 30, 60, 90, 120, 150, 180 min time intervals. The same volume of fresh preheated HBSS was added to keep the volume constant. Samples were centrifuged for 10 min at 12,000 r·min^−1 and the supernatant was analyzed for geniposide by HPLC.
An UV-HPLC method was used to quantify the geniposide concentrations in the transport studies. The chromatographic conditions consisted of a Purospher Star C18 column (4×200 mm, particle size 5 µm) plus guard column. Geniposide samples were analyzed with UV detection (λ = 238 nm) and the mobile phase was composed of acetonitrile and water (16∶84, v/v). The mobile phase was pumped at a flow rate of 1 mL·min^−1 and the injected volume was 20 µL. In these conditions, the retention time of geniposide was 8.5 min.
The apparent permeability coefficients (Papp) for geniposide were calculated according to the following equation (2): [drawing 2] where Papp is the permeability, dQ/dt is the apparent appearance rate of drug in the receiver side calculated using linear regression of amounts in the receiver chamber versus time, C is the drug concentration in the donor chamber and S is the surface area of the monolayer. The efflux ratio (ER) was calculated according to the following equation (3): [drawing 3]

[1] = mice, intravenous administration; cited from earlier work

## COC(=O)C1=CO[C@@H](O[C@@H]2O[C@H](CO)[C@@H](O)[C@H](O)[C@H]2O)[C@@H]2C(CO)=CC[C@H]12 [geniposide, Geniposide]
HNEC monolayer; Ge 50 µg·mL^−1 +Bo 27.8 µg·mL^−1
  ER±SD(B→A/A→B): 1.388±0.162
HNEC monolayer; Ge 50 µg·mL^−1 +Bo 27.8 µg·mL^−1 Mu 4.17 µg·mL^−1
  ER±SD(B→A/A→B): 1.268±0.057
HNEC monolayer; Ge 50 µg·mL^−1 +Bo 55.6 µg·mL^−1
  ER±SD(B→A/A→B): 1.429±0.149
HNEC monolayer; Ge 50 µg·mL^−1 +Bo 55.6 µg·mL^−1 Mu 8.34 µg·mL^−1
  ER±SD(B→A/A→B): 1.092±0.023
HNEC monolayer; Ge 50 µg·mL^−1 +Bo 111.2 µg·mL^−1
  ER±SD(B→A/A→B): 1.012±0.106
HNEC monolayer; Ge 50 µg·mL^−1 +Bo 111.2 µg·mL^−1 Mu 16.68 µg·mL^−1
  ER±SD(B→A/A→B): 1.245±0.026
HNEC monolayer; Ge 50 µg·mL^−1 +Mu 4.17 µg·mL^−1
  ER±SD(B→A/A→B): 1.400±0.071
HNEC monolayer; Ge 50 µg·mL^−1 +Mu 8.34 µg·mL^−1
  ER±SD(B→A/A→B): 1.268±0.033
HNEC monolayer; Ge 50 µg·mL^−1 +Mu 16.68 µg·mL^−1
  ER±SD(B→A/A→B): 1.072±0.069
HNEC monolayer; Ge 50 µg·mL^−1 combined with borneol (27.8, 55.6, 111.2 µg·mL^−1)
  B→A fluxes of geniposide: significantly increased
HNEC monolayer; Ge 50 µg·mL^−1 combined with muscone (4.17, 8.34, 16.68 µg·mL^−1)
  B→A fluxes of geniposide: significantly increased
HNEC monolayer; Ge 50 µg·mL^−1 in presence of borneol (111.2 µg·mL^−1)
  A→B fluxes of geniposide: significantly increased
HNEC monolayer; Ge 50 µg·mL^−1 in presence of muscone (8.34, 16.68 µg·mL^−1)
  A→B fluxes of geniposide: significantly increased
HNEC monolayer; Ge 50 µg·mL^−1 in the presence of borneol and muscone (Bo 27.8/Mu 4.17, Bo 55.6/Mu 8.34, Bo 111.2/Mu 16.68 µg·mL^−1), P<0.05
  permeability values in both directions: an increasing of permeability values in both directions was observed in a concentration-dependent manner
HNEC monolayer; geniposide 25, 50 and 100 µg·mL^−1
  (B→A)/(A→B) permeability ER: less than 2
[1]
  brain/blood drug ratio: about 10%
